This is an account of results in ChEMBL document CHEMBL5537158, “Polymyxins with Potent Antibacterial Activity against Colistin-Resistant Pathogens: Fine-Tuning Hydrophobicity with Unnatural Amino Acids” (J Med Chem, 2024).

Series [1] concerns Acinetobacter baumannii. Put plainly: Antimicrobial activity against colistin resistant Acinetobacter baumannii ATCC 3658/17 assessed as bacterial growth inhibition incubated for 20 hrs by broth microdilution method. The series is classed as functional. On the technique in general: In broth dilution the organism is exposed to a series of concentrations in liquid medium.
Series [2] relates to Acinetobacter baumannii. The series is described as follows: Antimicrobial activity against Acinetobacter baumannii ATCC 19606 assessed as bacterial growth inhibition incubated for 20 hrs by broth microdilution method. The class given is functional.
For the next series, the system named is Escherichia coli. Put plainly: Antibacterial activity against Escherichia coli ATCC 25922 assessed as bacterial growth inhibition incubated for 20 hrs by broth microdilution method. The series is classed as functional.
For a further series, the system named is Pseudomonas aeruginosa. The series is described as follows: Antimicrobial activity against Pseudomonas aeruginosa PAO1 assessed as bacterial growth inhibition incubated for 20 hrs by broth microdilution method. The class given is functional.
Series [3] in a line: Hemolytic activity in human RBC at 400 ug/ml after 1 hr. The series is classed as toxicity, cell-based, Erythrocyte. The settings on record: red blood cells (erythrocytes), at 400 µg/mL, read-out: Activity.

Converted amounts (≈) assume the structure as drawn. Positions of bridges follow the written chain, without caps; N, C: chain ends. Non-standard residues stand in square brackets, D forms with d. Residues, ends and D or L forms follow the SMILES beside them. *: point of attachment. Phe(3,4,5-F3) = N[C@@H](Cc1cc(F)c(F)c(F)c1)C(=O)O; Phe(4-CF3) = N[C@@H](Cc1ccc(C(F)(F)F)cc1)C(=O)O; dPhe(F5) = N[C@H](Cc1c(F)c(F)c(F)c(F)c1F)C(=O)O; Benzoyl(4-Ph) = O=C(c1ccc(-c2ccccc2)cc1)*; Phe(4-Cl) = N[C@@H](Cc1ccc(Cl)cc1)C(=O)O; dPhe(4-Cl) = N[C@H](Cc1ccc(Cl)cc1)C(=O)O; Phe(3-F) = N[C@@H](Cc1cccc(F)c1)C(=O)O; dPhe(4-F) = N[C@H](Cc1ccc(F)cc1)C(=O)O; Phe(2-F) = N[C@@H](Cc1ccccc1F)C(=O)O; dPhe(2-F) = N[C@H](Cc1ccccc1F)C(=O)O; d(hPhe) = N[C@H](CCc1ccccc1)C(=O)O; hhPhe = N[C@@H](CCCc1ccccc1)C(=O)O; d(hLeu) = CC(C)CC[C@@H](N)C(=O)O; hLeu = CC(C)CC[C@H](N)C(=O)O; Octanoyl = CCCCCCCC(=O)*; Dab = NCC[C@H](N)C(=O)O Bounds are passed on as bounds.

What is called MIC is the least concentration at which growth counts as inhibited. With `CCCCCCCC(=O)N[C@@H](CCN)C(=O)N[C@H](C(=O)N[C@@H](CCN)C(=O)N[C@H]1CCNC(=O)[C@H]([C@@H](C)O)NC(=O)[C@H](CCN)NC(=O)[C@H](CCN)NC(=O)[C@H](CC(C)C)NC(=O)[C@@H](Cc2ccccc2F)NC(=O)[C@H](CCN)NC1=O)[C@@H](C)O` (Octanoyl-[Dab]T[Dab][Dab][Dab][dPhe(2-F)]L[Dab][Dab]T; lactam 4-C), the results for the MIC in the series on Acinetobacter baumannii [1], in the series with Acinetobacter baumannii [2] and with Escherichia coli were 0.5 mg/L (≈ 0.414 µM), 0.06 mg/L (≈ 0.0497 µM) and 0.123 mg/L (≈ 0.102 µM), respectively.

Take `CCCCCCCC(=O)N[C@@H](CCN)C(=O)N[C@H](C(=O)N[C@@H](CCN)C(=O)N[C@H]1CCNC(=O)[C@H]([C@@H](C)O)NC(=O)[C@H](CCN)NC(=O)[C@H](CCN)NC(=O)[C@H](Cc2cc(F)c(F)c(F)c2)NC(=O)[C@@H](CC(C)C)NC(=O)[C@H](CCN)NC1=O)[C@@H](C)O` (Octanoyl-[Dab]T[Dab][Dab][Dab][dL][Phe(3,4,5-F3)][Dab][Dab]T; lactam 4-C): the values for the MIC in the series on Pseudomonas aeruginosa, in the series on Acinetobacter baumannii [1] and in the series on Acinetobacter baumannii [2] were 0.25 mg/L (≈ 0.201 µM), 2 mg/L (≈ 1.61 µM) and less than 0.125 mg/L, respectively.

Turning to `CCCCCCCC(=O)N[C@@H](CCN)C(=O)N[C@H](C(=O)N[C@@H](CCN)C(=O)N[C@H]1CCNC(=O)[C@H]([C@@H](C)O)NC(=O)[C@H](CCN)NC(=O)[C@H](CCN)NC(=O)[C@H](Cc2ccc(C(F)(F)F)cc2)NC(=O)[C@@H](CC(C)C)NC(=O)[C@H](CCN)NC1=O)[C@@H](C)O` (Octanoyl-[Dab]T[Dab][Dab][Dab][dL][Phe(4-CF3)][Dab][Dab]T; lactam 4-C), the values for the MIC in the series with Pseudomonas aeruginosa, in the series on Acinetobacter baumannii [1] and in the series with Acinetobacter baumannii [2] were 0.25 mg/L (≈ 0.199 µM), 1 mg/L (≈ 0.795 µM) and less than 0.125 mg/L, respectively.

For `CCCCCCCC(=O)N[C@@H](CCN)C(=O)N[C@H](C(=O)N[C@@H](CCN)C(=O)N[C@H]1CCNC(=O)[C@H]([C@@H](C)O)NC(=O)[C@H](CCN)NC(=O)[C@H](CCN)NC(=O)[C@H](Cc2cccc(F)c2)NC(=O)[C@@H](CC(C)C)NC(=O)[C@H](CCN)NC1=O)[C@@H](C)O` (Octanoyl-[Dab]T[Dab][Dab][Dab][dL][Phe(3-F)][Dab][Dab]T; lactam 4-C), in series [3], the hemolysis at 1 h, 400 ug/ml is less than 10%.

On to `CCCCCCCC(=O)N[C@@H](CCN)C(=O)N[C@H](C(=O)N[C@@H](CCN)C(=O)N[C@H]1CCNC(=O)[C@H]([C@@H](C)O)NC(=O)[C@H](CCN)NC(=O)[C@H](CCN)NC(=O)[C@H](Cc2ccccc2)NC(=O)[C@@H](CCC(C)C)NC(=O)[C@H](CCN)NC1=O)[C@@H](C)O` (Octanoyl-[Dab]T[Dab][Dab][Dab][d(hLeu)]F[Dab][Dab]T; lactam 4-C), for which the hemolysis at 1 h, 400 ug/ml in series [3] was less than 10%.

Turning to `CCCCCCCC(=O)N[C@@H](CCN)C(=O)N[C@H](C(=O)N[C@@H](CCN)C(=O)N[C@H]1CCNC(=O)[C@H]([C@@H](C)O)NC(=O)[C@H](CCN)NC(=O)[C@H](CCN)NC(=O)[C@H](CC(C)C)NC(=O)[C@@H](CCc2ccccc2)NC(=O)[C@H](CCN)NC1=O)[C@@H](C)O` (Octanoyl-[Dab]T[Dab][Dab][Dab][d(hPhe)]L[Dab][Dab]T; lactam 4-C), the hemolysis at 1 h, 400 ug/ml in series [3] is less than 10%.

On to `CCCCCCCC(=O)N[C@@H](CCN)C(=O)N[C@H](C(=O)N[C@@H](CCN)C(=O)N[C@H]1CCNC(=O)[C@H]([C@@H](C)O)NC(=O)[C@H](CCN)NC(=O)[C@H](CCN)NC(=O)[C@H](CC(C)C)NC(=O)[C@@H](Cc2c(F)c(F)c(F)c(F)c2F)NC(=O)[C@H](CCN)NC1=O)[C@@H](C)O` (Octanoyl-[Dab]T[Dab][Dab][Dab][dPhe(F5)]L[Dab][Dab]T; lactam 4-C), for which the hemolysis at 1 h, 400 ug/ml in series [3] is less than 10%.

Regarding `CCCCCCCC(=O)N[C@@H](CCN)C(=O)N[C@H](C(=O)N[C@@H](CCN)C(=O)N[C@H]1CCNC(=O)[C@H]([C@@H](C)O)NC(=O)[C@H](CCN)NC(=O)[C@H](CCN)NC(=O)[C@H](CCCc2ccccc2)NC(=O)[C@@H](CC(C)C)NC(=O)[C@H](CCN)NC1=O)[C@@H](C)O` (Octanoyl-[Dab]T[Dab][Dab][Dab][dL][hhPhe][Dab][Dab]T; lactam 4-C), the hemolysis at 1 h, 400 ug/ml in series [3] was less than 10%.

Consider `CCCCCCCC(=O)N[C@@H](CCN)C(=O)N[C@H](C(=O)N[C@@H](CCN)C(=O)N[C@H]1CCNC(=O)[C@H]([C@@H](C)O)NC(=O)[C@H](CCN)NC(=O)[C@H](CCN)NC(=O)[C@H](CC(C)C)NC(=O)[C@@H](Cc2ccc(F)cc2)NC(=O)[C@H](CCN)NC1=O)[C@@H](C)O` (Octanoyl-[Dab]T[Dab][Dab][Dab][dPhe(4-F)]L[Dab][Dab]T; lactam 4-C), for which the hemolysis at 1 h, 400 ug/ml in series [3] is less than 10%.

`CCCCCCCC(=O)N[C@@H](CCN)C(=O)N[C@H](C(=O)N[C@@H](CCN)C(=O)N[C@H]1CCNC(=O)[C@H]([C@@H](C)O)NC(=O)[C@H](CCN)NC(=O)[C@H](CCN)NC(=O)[C@H](CC(C)C)NC(=O)[C@@H](Cc2ccc(Cl)cc2)NC(=O)[C@H](CCN)NC1=O)[C@@H](C)O` (Octanoyl-[Dab]T[Dab][Dab][Dab][dPhe(4-Cl)]L[Dab][Dab]T; lactam 4-C): in series [3], the hemolysis at 1 h, 400 ug/ml was less than 10%.

As for `CCCCCCCC(=O)N[C@@H](CCN)C(=O)N[C@H](C(=O)N[C@@H](CCN)C(=O)N[C@H]1CCNC(=O)[C@H]([C@@H](C)O)NC(=O)[C@H](CCN)NC(=O)[C@H](CCN)NC(=O)[C@H](CCC(C)C)NC(=O)[C@@H](Cc2ccccc2)NC(=O)[C@H](CCN)NC1=O)[C@@H](C)O` (Octanoyl-[Dab]T[Dab][Dab][Dab][dF][hLeu][Dab][Dab]T; lactam 4-C), the hemolysis at 1 h, 400 ug/ml in series [3] is less than 10%.

As for `CC(=O)N[C@H](Cc1ccc(F)cc1)C(=O)N[C@@H](CCN)C(=O)N[C@H](C(=O)N[C@@H](CCN)C(=O)N[C@H]1CCNC(=O)[C@H]([C@@H](C)O)NC(=O)[C@H](CCN)NC(=O)[C@H](CCN)NC(=O)[C@H](CC(C)C)NC(=O)[C@@H](Cc2ccccc2)NC(=O)[C@@H](CCN)NC1=O)[C@H](C)O`, the hemolysis at 1 h, 400 ug/ml in series [3] is less than 10%. Further, the MIC is 16 mg/L (≈ 12.6 µM) in the series with Acinetobacter baumannii [1], 2 mg/L (≈ 1.57 µM) with Acinetobacter baumannii [2] and 0.25 mg/L (≈ 0.197 µM) in the series with Escherichia coli.

For `CCCCCCCC(=O)N[C@@H](CCN)C(=O)N[C@H](C(=O)N[C@@H](CCN)C(=O)N[C@H]1CCNC(=O)[C@H]([C@@H](C)O)NC(=O)[C@H](CCN)NC(=O)[C@H](CCN)NC(=O)[C@H](Cc2ccc(Cl)cc2)NC(=O)[C@@H](CC(C)C)NC(=O)[C@H](CCN)NC1=O)[C@@H](C)O` (Octanoyl-[Dab]T[Dab][Dab][Dab][dL][Phe(4-Cl)][Dab][Dab]T; lactam 4-C), in series [3], the hemolysis at 1 h, 400 ug/ml was less than 10%.

With `CCCCCCCC(=O)N[C@@H](CCN)C(=O)N[C@H](C(=O)N[C@@H](CCN)C(=O)N[C@H]1CCNC(=O)[C@H]([C@@H](C)O)NC(=O)[C@H](CCN)NC(=O)[C@H](CCN)NC(=O)[C@H](Cc2ccccc2F)NC(=O)[C@@H](CC(C)C)NC(=O)[C@H](CCN)NC1=O)[C@@H](C)O` (Octanoyl-[Dab]T[Dab][Dab][Dab][dL][Phe(2-F)][Dab][Dab]T; lactam 4-C), the hemolysis at 1 h, 400 ug/ml in series [3] is less than 10%.

For `CCCCCCCC(=O)N[C@@H](CCN)C(=O)N[C@H](C(=O)N[C@@H](CCN)C(=O)N[C@H]1CCNC(=O)[C@H]([C@@H](C)O)NC(=O)[C@H](CCN)NC(=O)[C@H](CCN)NC(=O)[C@H](CCCCCC)NC(=O)[C@@H](Cc2ccccc2)NC(=O)[C@H](CCN)NC1=O)[C@@H](C)O`, the hemolysis at 1 h, 400 ug/ml in series [3] was less than 10%.

Consider `CC[C@H](C)[C@@H]1NC(=O)[C@@H](CC(C)C)NC(=O)[C@H](CCN)NC(=O)[C@@H](NC(=O)[C@@H](CO)NC(=O)[C@@H](NC(=O)[C@H](CCN)NC(=O)c2ccc(-c3ccccc3)cc2)[C@@H](C)O)CCNC(=O)[C@H](CC(C)C)NC(=O)[C@H](CCN)NC(=O)[C@H](CCN)NC1=O` ({Benzoyl(4-Ph)}-[Dab]T[dS][Dab][Dab][dL]I[Dab][Dab]L; lactam 4-C), for which the hemolysis at 1 h, 400 ug/ml in series [3] is less than 10%.
